{"source": "patent US20170056336A1", "about": "“CO-TARGETING ANDROGEN RECEPTOR SPLICE VARIANTS AND MTOR SIGNALING PATHWAY FOR THE TREATMENT OF CASTRATION-RESISTANT PROSTATE CANCER” (British Columbia Cancer Agency Branch, priority 2015, published 2017)", "biological_target": "T1, AR NTD (Homo sapiens, UniProt P10275)", "T1 sequence (P10275 1-558)": "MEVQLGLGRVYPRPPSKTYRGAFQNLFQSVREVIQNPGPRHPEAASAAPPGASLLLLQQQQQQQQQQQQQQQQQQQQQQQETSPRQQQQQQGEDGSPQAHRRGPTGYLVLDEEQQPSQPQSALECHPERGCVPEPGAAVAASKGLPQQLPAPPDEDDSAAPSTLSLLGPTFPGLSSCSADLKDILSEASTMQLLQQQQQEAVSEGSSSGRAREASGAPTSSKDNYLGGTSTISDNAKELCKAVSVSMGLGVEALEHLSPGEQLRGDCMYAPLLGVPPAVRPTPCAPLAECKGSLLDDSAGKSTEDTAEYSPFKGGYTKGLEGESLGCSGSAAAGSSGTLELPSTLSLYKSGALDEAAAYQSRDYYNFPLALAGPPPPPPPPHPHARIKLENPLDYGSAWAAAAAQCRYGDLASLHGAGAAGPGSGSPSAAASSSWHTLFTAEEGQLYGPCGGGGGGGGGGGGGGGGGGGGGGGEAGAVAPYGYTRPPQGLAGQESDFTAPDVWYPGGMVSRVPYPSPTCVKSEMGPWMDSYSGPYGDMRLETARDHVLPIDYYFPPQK", "assay": "AR NTD transactivation assay in LNCaP cells", "format": "cell-based", "conditions": "24 h", "protocol": "Transactivation assays of the AR NTD were performed in LNCaP and LNCaP95 cells cotransfected with p5xGal4UAS-TATA-luciferase and AR NTD-Gal4DBD (FIG. 2D). […] LNCaP95 cells were harvested 24 h after the treatment of indicated compounds.\nThe AR NTD is essential for full transcriptional activities (Quayle, S. N. et. al., PNAS 2007, 104, 1331-1336). In LNCaP cells, transactivation of the AR NTD can be induced with IL-6 or by stimulation of the PKA pathway with FSK. In LNCaP95 cells, there is high intrinsic activity of the AR NTD which cannot be further induced by stimulation of these pathways.", "data": [{"compound": "Cn1c(=O)n(-c2ccc(C(C)(C)C#N)cc2)c2c3cc(-c4cnc5ccccc5c4)ccc3ncc21", "note": "[BEZ-235, 2-methyl-2-[4-(3-methyl-2-oxo-8-quinolin-3-ylimidazo[4,5-c]quinolin-1-yl)phenyl]propanenitrile]", "values": [{"measurement": "AR-NTD transactivation induced by FSK", "setting": "FSK 50 uM", "result": "no effect"}, {"measurement": "AR-NTD transactivation induced by IL-6", "setting": "IL-6 50 ng/ml", "result": "significantly inhibited"}]}]}
